According to patent publication US20110039834A1, “NOVEL PHARMACEUTICAL COMPOSITIONS FOR OPTIMIZING SUBSTITUTION TREATMENTS AND EXTENDING THE PHARMACOPOEIA TO GLOBAL TREATMENT OF ADDICTIONS” (TRIMARAN LIMITED, priority 2006, published 2011):

Columns and labels:
male mice of OF1 strain [1] = test: Measurement of locomotor activity: determination of the doses of amisulpride; format: in vivo
Method: The animals used in this study are male mice of OF1 strain weighing about 20 g at the start of the experiments (Charles River, France). They live in an environment whose daily lighting cycle (07:30h; 17:30h) is constant throughout the year, and the temperature is maintained at about 22° C. The mice have free access to water and food, and the experiments are performed in accordance with the international rules on ethics in animal experimentation.
The mice are placed individually in a sound-insulated plastic cage ([…]) and are exposed to a light intensity of 5 lux. The animals' movements are captured by photoelectric cells for 60 minutes and recorded by computer. The experiment starts immediately after injection of the product. In this study, the term “locomotor activity” takes into account only the horizontal movements of the animals.
A one-factor (treatment) analysis of variance (ANOVA) is used for all the behavioral tests performed, followed by a Student-Newman-Keuls test if p<0.05 in the ANOVA. In all the cases, the significance is accepted once p<0.05.
A molecule endowed with dopaminergic antagonist activity reduces locomotor activity. It is this property that is exploited in order to determine the dose after which amisulpride has dopaminergic antagonist activity in mice (i.e. an effect on the D2 and D3 post-synaptic receptors, and not on the D2 and D3 auto-receptors). […]

male mice of OF1 strain [2] = test: Behavioral sensitization to morphine (locomotor activity on D15 after morphine injection); format: in vivo
Method: The locomotor activity is influenced by a wide diversity of factors.
The experimental protocol used may be described in the following manner:
Dose of amisulpride (AMS): 0.5 mg/kg Dose of buprenorphine (Bup): 0.1 mg/kg
The animals received from D1 to D7 either morphine or physiological saline, from Day D8 to D14 either physiological saline, or buprenorphine, amisulpride, buprenorphine and amisulpride according to the scheme:

| SMILES | effect on locomotor activity at low dose (male mice of OF1 strain [1]; 0.5 mg/kg) | dose at and above which the decrease in locomotor activity is significant (male mice of OF1 strain [1]; doses tested 0.5, 2, 10, 20 and 50 mg/kg, horizontal movements over 60 minutes) [mg/kg] | reduction of the behavioral sensitization to morphine (male mice of OF1 strain [2]; morphine D1 to D7, treatment between D8 and D14 (amisulpride 0.5 mg/kg, buprenorphine 0.1 mg/kg), morphine 10 mg/kg on D15) | behavioral sensitization on D15 relative to animals chronically treated with saline (male mice of OF1 strain [2]; mice chronically treated D1 to D7, locomotor activity on D15 after morphine 10 mg/kg) |
| --- | --- | --- | --- | --- |
| CCN1CCCC1CNC(=O)c1cc(S(=O)(=O)CC)c(N)cc1OC (stereo not shown) [amisulpride] | locomotor hyperactivity is observed | ≥ 10 | does not make it possible to reduce this behavioral sensitization | – |
| CN1CC[C@]23c4c5ccc(O)c4O[C@H]2[C@@H](O)C=C[C@H]3[C@H]1C5 [morphine] | – | – | – | show behavioral sensitization |
